Results: patent EP2588472B1, “RUPATADINE derivative AS AN ANTIHISTAMINIC AGENT” (J. Uriach y Compania S.A., priority 2010, dated 2012)

Key:
[1] = stated in background; cited from earlier work
human H1 receptor = molecular target: T1, human H1 receptor (Homo sapiens, UniProt P35367); test: standard H1 binding assay ([3H]-pyrilamine displacement, scintillation counting); conditions: recombinant HEK-293 derived membranes, [3H]-pyrilamine 1 nM, 22°C, 60 minutes
T1 construct: expressed in transfected cells; host or cells: HEK-293 (membranes)
T1 sequence (P35367 whole entry): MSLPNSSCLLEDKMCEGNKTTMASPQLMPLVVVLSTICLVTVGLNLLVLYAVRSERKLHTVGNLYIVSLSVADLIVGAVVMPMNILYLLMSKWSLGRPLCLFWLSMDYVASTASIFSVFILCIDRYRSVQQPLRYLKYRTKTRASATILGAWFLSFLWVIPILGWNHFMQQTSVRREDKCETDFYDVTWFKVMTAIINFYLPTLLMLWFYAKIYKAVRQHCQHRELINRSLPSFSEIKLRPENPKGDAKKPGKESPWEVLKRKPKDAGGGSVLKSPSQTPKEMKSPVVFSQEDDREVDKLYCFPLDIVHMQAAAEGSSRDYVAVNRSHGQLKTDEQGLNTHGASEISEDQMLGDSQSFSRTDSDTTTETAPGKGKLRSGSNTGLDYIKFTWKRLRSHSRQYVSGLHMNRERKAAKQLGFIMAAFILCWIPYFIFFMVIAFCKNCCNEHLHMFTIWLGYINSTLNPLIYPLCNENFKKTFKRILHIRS
Method: The antiH1 activity of Compound II was assayed using a standard H1 binding assay. The test was performed following a protocol based on Smit et al. (Brit. J. Pharmacol. 1996 117(6), 1071-1080): the binding was performed on recombinant HEK-293 cells expressing the human H1 receptor. The reference compound was [^3H]-pyrilamine at 1 nM. Recombinant HEK-293 derived membranes were incubated at 22°C for 60 minutes with [^3H]-pyrilamine in the presence of different concentrations of compound II. Measurements were carried out using scintillation counting.

solubility in water = type: physicochemical

IC50 (human H1 receptor) [nM] | solubility (solubility in water) [mg/mL] | Compound | solubility in water [1] [mg/mL]
– | – | Rupatadine fumarate | 2.9
370 | > 50 | Cc1cc(CN2CCC(=C3c4ccc(Cl)cc4CCc4cccnc43)CC2)c[n+](C(CC(=O)O)C(=O)[O-])c1 (stereo not drawn) [Compound II] | –
